From ChEMBL document CHEMBL1147210, “Synthesis and antibacterial activity of levofloxacin derivatives with certain bulky residues on piperazine ring” (Eur J Med Chem, 2007)
Converted amounts (≈) assume the structure as drawn. The source made the active and inactive calls. The rule behind the calls is not given here.

Tests used:
Klebsiella pneumoniae = experiment: Antibacterial activity against Klebsiella pneumoniae ATCC 10031 after 18 hrs; format: functional; conditions: ATCC 10031, 18 h
Escherichia coli [1] = experiment: Antibacterial activity against Escherichia coli NCTC 12900 after 18 hrs; format: functional; conditions: NCTC 12900, 18 h
Escherichia coli [2] = experiment: Antibacterial activity against Escherichia coli ATCC 25922 after 18 hrs; format: functional; conditions: ATCC 25922, 18 h
Staphylococcus aureus [3] = experiment: Antibacterial activity against methicillin-resistant Staphylococcus aureus isolate 1 after 18 hrs; format: functional
Staphylococcus aureus [4] = experiment: Antibacterial activity against Staphylococcus aureus ATCC 6538p after 18 hrs; format: functional
Bacillus subtilis = experiment: Antibacterial activity against Bacillus subtilis ATCC 6051 after 18 hrs; format: functional; conditions: ATCC 6051, 18 h
Shigella flexneri = experiment: Antibacterial activity against Shigella flexneri NCTC 8516 after 18 hrs; format: functional; conditions: NCTC 8516, 18 h
Salmonella typhi = experiment: Antibacterial activity against Salmonella typhi ATCC 19430 after 18 hrs; format: functional, Salmonella enterica subsp. enterica serovar Typhi; conditions: Salmonella enterica, ATCC 19430, 18 h
Staphylococcus aureus [5] = experiment: Antibacterial activity against methicillin-resistant Staphylococcus aureus isolate 2 after 18 hrs; format: functional
Staphylococcus aureus [6] = experiment: Antibacterial activity against Staphylococcus aureus ATCC 25923 after 18 hrs; format: functional; conditions: ATCC 25923, 18 h
[7] = tested on: Staphylococcus epidermidis; experiment: Antibacterial activity against Staphylococcus epidermidis ATCC 12228 after 18 hrs; format: functional; conditions: ATCC 12228, 18 h
Pseudomonas aeruginosa = experiment: Antibacterial activity against Pseudomonas aeruginosa ATCC 27853 after 18 hrs; format: functional; conditions: ATCC 27853, 18 h
Enterococcus faecalis = experiment: Antibacterial activity against Enterococcus faecalis NCTC 6013 after 18 hrs; format: functional; conditions: NCTC 6013, 18 h
Serratia marcescens = experiment: Antibacterial activity against Serratia marcescens PTCC 1111 after 18 hrs; format: functional
[8] = tested on: Staphylococcus epidermidis; experiment: Antibacterial activity against Staphylococcus epidermidis ATCC 14940 after 18 hrs; format: functional; conditions: ATCC 14940, 18 h
MCF7 = experiment: Cytotoxic activity against human MCF7 cells after 48 hrs by MTT reduction assay; format: functional, cell-based; conditions: for IC50: MCF7, 48 h

Compound	MIC (Klebsiella pneumoniae) [µg/mL]	MIC (Escherichia coli [1]) [µg/mL]	MIC (Escherichia coli [2]) [µg/mL]	MIC (Staphylococcus aureus [3]) [µg/mL]	MIC (Staphylococcus aureus [4]) [µg/mL]	MIC (Bacillus subtilis) [µg/mL]	MIC (Shigella flexneri) [µg/mL]	MIC (Salmonella typhi) [µg/mL]	MIC (Staphylococcus aureus [5]) [µg/mL]	MIC (Staphylococcus aureus [6]) [µg/mL]	MIC [7] [µg/mL]	MIC (Pseudomonas aeruginosa) [µg/mL]	MIC (Enterococcus faecalis) [µg/mL]	MIC (Serratia marcescens) [µg/mL]	MIC [8] [µg/mL]	Activity (MCF7)	IC50 (MCF7) [µM]
C[C@H]1COc2c(N3CCN(C/C(=N\O)c4ccc(Cl)cc4Cl)CC3)c(F)cc3c(=O)c(C(=O)O)cn1c23	> 4	4 (≈ 7.28 µM)	4 (≈ 7.28 µM)	0.5 (≈ 0.91 µM)	0.5 (≈ 0.91 µM)	1 (≈ 1.82 µM)	4 (≈ 7.28 µM)	4 (≈ 7.28 µM)	0.5 (≈ 0.91 µM)	0.5 (≈ 0.91 µM)	0.5 (≈ 0.91 µM)	> 4	4 (≈ 7.28 µM)	> 4	0.5 (≈ 0.91 µM)		
C[C@H]1COc2c(N3CCN(C/C(=N\OCc4ccccc4)c4ccccc4)CC3)c(F)cc3c(=O)c(C(=O)O)cn1c23	> 4	> 4	> 4	> 4	> 4	> 4	> 4	> 4	> 4	> 4	> 4	> 4	> 4	> 4	> 4	inactive	
C[C@H]1COc2c(N3CCNCC3)c(F)cc3c(=O)c(C(=O)O)cn1c23 [N-DESMETHYL LEVOFLOXACIN]	0.25 (≈ 0.72 µM)	0.12 (≈ 0.345 µM)	0.12 (≈ 0.345 µM)	2 (≈ 5.76 µM)	2 (≈ 5.76 µM)	1 (≈ 2.88 µM)	0.06 (≈ 0.173 µM)	0.06 (≈ 0.173 µM)	2 (≈ 5.76 µM)	4 (≈ 11.5 µM)	1 (≈ 2.88 µM)	> 4	0.06 (≈ 0.173 µM)	1 (≈ 2.88 µM)	1 (≈ 2.88 µM)		
C[C@H]1COc2c(N3CCN(CC(=O)c4ccccc4)CC3)c(F)cc3c(=O)c(C(=O)O)cn1c23	0.5 (≈ 1.07 µM)	0.25 (≈ 0.537 µM)	0.12 (≈ 0.258 µM)	0.5 (≈ 1.07 µM)	0.5 (≈ 1.07 µM)	0.5 (≈ 1.07 µM)	0.25 (≈ 0.537 µM)	0.12 (≈ 0.258 µM)	1 (≈ 2.15 µM)	0.5 (≈ 1.07 µM)	0.5 (≈ 1.07 µM)	> 4	4 (≈ 8.59 µM)	4 (≈ 8.59 µM)	0.5 (≈ 1.07 µM)		
C[C@H]1COc2c(N3CCN(C/C(=N\O)c4ccccc4)CC3)c(F)cc3c(=O)c(C(=O)O)cn1c23	4 (≈ 8.32 µM)	4 (≈ 8.32 µM)	4 (≈ 8.32 µM)	0.5 (≈ 1.04 µM)	0.5 (≈ 1.04 µM)	0.25 (≈ 0.52 µM)	0.5 (≈ 1.04 µM)	0.5 (≈ 1.04 µM)	1 (≈ 2.08 µM)	0.5 (≈ 1.04 µM)	0.5 (≈ 1.04 µM)	> 4	4 (≈ 8.32 µM)	> 4	0.5 (≈ 1.04 µM)		
C[C@H]1COc2c(N3CCN(CC(=O)c4ccc(Br)cc4)CC3)c(F)cc3c(=O)c(C(=O)O)cn1c23	> 4	0.5 (≈ 0.918 µM)	0.5 (≈ 0.918 µM)	1 (≈ 1.84 µM)	1 (≈ 1.84 µM)	0.25 (≈ 0.459 µM)	0.5 (≈ 0.918 µM)	0.5 (≈ 0.918 µM)	0.5 (≈ 0.918 µM)	0.5 (≈ 0.918 µM)	0.25 (≈ 0.459 µM)	> 4	0.12 (≈ 0.22 µM)	4 (≈ 7.35 µM)	0.25 (≈ 0.459 µM)		5.2
C[C@H]1COc2c(N3CCN(CC(=O)c4ccc(Cl)cc4Cl)CC3)c(F)cc3c(=O)c(C(=O)O)cn1c23	> 4	2 (≈ 3.74 µM)	1 (≈ 1.87 µM)	0.5 (≈ 0.936 µM)	1 (≈ 1.87 µM)	1 (≈ 1.87 µM)	1 (≈ 1.87 µM)	2 (≈ 3.74 µM)	1 (≈ 1.87 µM)	0.5 (≈ 0.936 µM)	1 (≈ 1.87 µM)	> 4	0.5 (≈ 0.936 µM)	> 4	0.5 (≈ 0.936 µM)		
COc1cc([C@@H]2c3cc4c(cc3[C@@H](O[C@@H]3O[C@@H]5CO[C@@H](C)O[C@H]5[C@H](O)[C@H]3O)[C@H]3COC(=O)[C@H]23)OCO4)cc(OC)c1O [ETOPOSIDE]																	3.2
Cc1ccc(C(=O)CN2CCN(c3c(F)cc4c(=O)c(C(=O)O)cn5c4c3OC[C@@H]5C)CC2)cc1	> 4	0.5 (≈ 1.04 µM)	1 (≈ 2.09 µM)	1 (≈ 2.09 µM)	1 (≈ 2.09 µM)	0.5 (≈ 1.04 µM)	0.5 (≈ 1.04 µM)	1 (≈ 2.09 µM)	1 (≈ 2.09 µM)	0.5 (≈ 1.04 µM)	0.5 (≈ 1.04 µM)	> 4	0.25 (≈ 0.521 µM)	> 4	0.5 (≈ 1.04 µM)		
COc1ccc(/C(CN2CCN(c3c(F)cc4c(=O)c(C(=O)O)cn5c4c3OC[C@@H]5C)CC2)=N/O)cc1	> 4	0.5 (≈ 0.979 µM)	0.5 (≈ 0.979 µM)	1 (≈ 1.96 µM)	0.5 (≈ 0.979 µM)	0.12 (≈ 0.235 µM)	0.5 (≈ 0.979 µM)	0.5 (≈ 0.979 µM)	0.5 (≈ 0.979 µM)	1 (≈ 1.96 µM)	0.5 (≈ 0.979 µM)	> 4	0.06 (≈ 0.118 µM)	> 4	0.5 (≈ 0.979 µM)		
COc1ccc(C(=O)CN2CCN(c3c(F)cc4c(=O)c(C(=O)O)cn5c4c3OC[C@@H]5C)CC2)cc1	4 (≈ 8.07 µM)	0.5 (≈ 1.01 µM)	0.5 (≈ 1.01 µM)	0.5 (≈ 1.01 µM)	0.5 (≈ 1.01 µM)	0.25 (≈ 0.505 µM)	0.5 (≈ 1.01 µM)	0.5 (≈ 1.01 µM)	1 (≈ 2.02 µM)	0.5 (≈ 1.01 µM)	0.25 (≈ 0.505 µM)	> 4	0.06 (≈ 0.121 µM)	4 (≈ 8.07 µM)	0.25 (≈ 0.505 µM)		
C[C@H]1COc2c(N3CCN(C/C(=N\O)c4ccc(Cl)cc4)CC3)c(F)cc3c(=O)c(C(=O)O)cn1c23	> 4	1 (≈ 1.94 µM)	2 (≈ 3.88 µM)	0.5 (≈ 0.971 µM)	0.25 (≈ 0.485 µM)	0.25 (≈ 0.485 µM)	0.5 (≈ 0.971 µM)	0.5 (≈ 0.971 µM)	0.25 (≈ 0.485 µM)	0.5 (≈ 0.971 µM)	0.25 (≈ 0.485 µM)	> 4	0.06 (≈ 0.117 µM)	> 4	0.12 (≈ 0.233 µM)		5.2
C[C@H]1COc2c(N3CCN(C/C(=N\O)c4ccc(Br)cc4)CC3)c(F)cc3c(=O)c(C(=O)O)cn1c23	> 4	1 (≈ 1.79 µM)	4 (≈ 7.15 µM)	0.5 (≈ 0.894 µM)	0.5 (≈ 0.894 µM)	0.12 (≈ 0.215 µM)	0.5 (≈ 0.894 µM)	0.5 (≈ 0.894 µM)	0.5 (≈ 0.894 µM)	0.5 (≈ 0.894 µM)	0.25 (≈ 0.447 µM)	> 4	0.06 (≈ 0.107 µM)	> 4	0.12 (≈ 0.215 µM)		5.2
C[C@H]1COc2c(N3CCN(C)CC3)c(F)cc3c(=O)c(C(=O)O)cn1c23.C[C@H]1COc2c(N3CCN(C)CC3)c(F)cc3c(=O)c(C(=O)O)cn1c23.O [LEVOFLOXACIN]	0.25			0.25	0.25	0.5	0.03	0.03	0.25	0.5	0.25		1	0.5	0.5		
C[C@H]1COc2c(N3CCN(CC(=O)c4ccc(Cl)cc4)CC3)c(F)cc3c(=O)c(C(=O)O)cn1c23	> 4	1 (≈ 2 µM)	0.5 (≈ 1 µM)	0.25 (≈ 0.5 µM)	0.5 (≈ 1 µM)	0.12 (≈ 0.24 µM)	0.25 (≈ 0.5 µM)	0.25 (≈ 0.5 µM)	0.25 (≈ 0.5 µM)	0.5 (≈ 1 µM)	0.25 (≈ 0.5 µM)	> 4	0.06 (≈ 0.12 µM)	4 (≈ 8 µM)	0.12 (≈ 0.24 µM)		5.2
C[C@H]1COc2c(N3CCN(CC(=O)c4ccc(F)cc4)CC3)c(F)cc3c(=O)c(C(=O)O)cn1c23	> 4	2 (≈ 4.14 µM)	1 (≈ 2.07 µM)	0.5 (≈ 1.03 µM)	1 (≈ 2.07 µM)	0.5 (≈ 1.03 µM)	1 (≈ 2.07 µM)	1 (≈ 2.07 µM)	1 (≈ 2.07 µM)	1 (≈ 2.07 µM)	0.5 (≈ 1.03 µM)	> 4	0.25 (≈ 0.517 µM)	> 4	0.5 (≈ 1.03 µM)		
C[C@H]1COc2c(N3CCN(C/C(=N\O)c4ccc(F)cc4)CC3)c(F)cc3c(=O)c(C(=O)O)cn1c23	> 4	2 (≈ 4.01 µM)	4 (≈ 8.02 µM)	1 (≈ 2.01 µM)	1 (≈ 2.01 µM)	0.25 (≈ 0.502 µM)	1 (≈ 2.01 µM)	1 (≈ 2.01 µM)	1 (≈ 2.01 µM)	1 (≈ 2.01 µM)	0.5 (≈ 1 µM)	> 4	0.25 (≈ 0.502 µM)	> 4	0.5 (≈ 1 µM)		
Cc1ccc(/C(CN2CCN(c3c(F)cc4c(=O)c(C(=O)O)cn5c4c3OC[C@@H]5C)CC2)=N/O)cc1	> 4	1 (≈ 2.02 µM)	1 (≈ 2.02 µM)	0.5 (≈ 1.01 µM)	0.5 (≈ 1.01 µM)	0.5 (≈ 1.01 µM)	1 (≈ 2.02 µM)	1 (≈ 2.02 µM)	0.5 (≈ 1.01 µM)	1 (≈ 2.02 µM)	0.5 (≈ 1.01 µM)	> 4	0.25 (≈ 0.506 µM)	> 4	0.5 (≈ 1.01 µM)		
